{"source": "patent US11571411B2", "about": "“Use of a bisamide derivative of malonic acid for treating allergic and other diseases in humans and animals” (PHARMENTERPRISES ALLERGY LLC, priority 2018, dated 2023)", "origin": "cited, not measured here", "key": {"H3 receptor": {"molecular_target": "T1, H3 receptor (Homo sapiens, UniProt Q9Y5N1)", "T1 construct": "host or cells: human volunteers (nasal mucosa, in vivo)", "T1 sequence (Q9Y5N1 whole entry)": "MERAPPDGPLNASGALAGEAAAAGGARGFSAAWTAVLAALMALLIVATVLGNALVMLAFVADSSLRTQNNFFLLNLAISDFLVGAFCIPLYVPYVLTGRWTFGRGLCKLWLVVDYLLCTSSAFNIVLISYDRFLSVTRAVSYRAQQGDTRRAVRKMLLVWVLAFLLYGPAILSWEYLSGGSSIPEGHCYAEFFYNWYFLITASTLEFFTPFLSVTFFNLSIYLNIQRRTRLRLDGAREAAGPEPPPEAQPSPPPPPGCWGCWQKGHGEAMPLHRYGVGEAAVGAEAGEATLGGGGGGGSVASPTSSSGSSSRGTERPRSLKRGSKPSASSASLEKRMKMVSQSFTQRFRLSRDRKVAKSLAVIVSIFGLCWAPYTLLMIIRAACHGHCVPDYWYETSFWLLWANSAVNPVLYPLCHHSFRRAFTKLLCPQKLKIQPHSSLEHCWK", "details": "humans, topical administration; cited from earlier work"}, "[1]": {"details": "in vivo; cited from earlier work"}}}
{"smiles": "S=C(NC1CCCCC1)N1CCC(c2cnc[nH]2)CC1", "note": "[Thioperamide]", "values": [{"measurement": "effect on nasal blockage induced by R-alpha-methylhistamine", "setting": "H3 receptor", "value": "reduced"}, {"measurement": "crossing of the blood-brain barrier", "setting": "[1]", "value": "cross the blood-brain barrier"}]}
